Reference: paper PMC8745223, “Novel 1,3,5-Triazinyl Aminobenzenesulfonamides Incorporating Aminoalcohol, Aminochalcone and Aminostilbene Structural Motifs as Potent Anti-VRE Agents, and Carbonic Anhydrases I, II, VII, IX, and XII Inhibitors” (International Journal of Molecular Sciences, 2021)
Converted amounts (≈) assume the structure as drawn.

How the values were obtained:
[1] = system: T1, E. faecalis ATCC 29212 (EF); test: microbe, parasite or virus in culture; design: broth microdilution MIC in BHI, Alamar Blue read-out, 37 °C; conditions: Enterococcus faecalis, ATCC29212, 24 h
T1 construct: ATCC 29212
Method: (§1) The inhibition activity against enterococci was evaluated by the microtitration broth method according to the Clinical and Laboratory Standards Institute with some modifications. The compounds were dissolved in DMSO and serially diluted in Brain Hearth Infusion (BHI) to reach concentrations 256–2 µg/mL. […] The experiment was repeated at least three times. All the investigated compounds were tested on their anti-staphylococcal activity against three clinical isolates of methicillin-resistant Staphylococcus aureus (MRSA) and S. aureus ATCC 29213 as the reference and quality control strain.

hCA II = target: T2, hCA II (Homo sapiens, UniProt P00918); test: stopped-flow CO2 hydration assay; format: biochemical
T2 construct: gene CA2; recombinant
Summary of the method: (§2)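 Recombinant human carbonic anhydrase CO2 hydration was followed by stopped-flow for 10–100 s with 0.2 mM phenol red (557 nm), 20 mM Hepes pH 7.5, 20 mM Na2SO4 and 1.7–17 mM CO2. Enzyme and inhibitor (diluted to 0.005 nM in buffer) were preincubated 15 min at room temperature. Initial rates used at least six traces, with uncatalysed rates subtracted. Ki was fitted by non-linear least squares with Cheng–Prusoff equation, averaged over three or more determinations.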

[2] = system: T3, Enterococcus faecalis VRE 368; test: organism not typed; design: broth microdilution MIC in BHI, Alamar Blue read-out, 37 °C; conditions: 24 h
T3 construct: VRE 368 (vanA clinical isolate)
Method: as §1

[3] = system: T4, Enterococcus faecalis VRE 342 B; test: organism not typed; design: broth microdilution MIC in BHI, Alamar Blue read-out, 37 °C; conditions: 24 h
T4 construct: VRE 342 B (vanA clinical isolate)
Method: as §1

[4] = system: T5, Enterococcus faecalis VRE 725 B; test: organism not typed; design: broth microdilution MIC in BHI, Alamar Blue read-out, 37 °C; conditions: 24 h
T5 construct: VRE 725B (vanA clinical isolate)
Method: as §1, with “strain. […] All the compounds were tested against Enterococcus faecalis ATCC 29212 as the reference strain and three isolates from American crows of vanA-carrying vancomycin-resistant E. faecalis (VRE), and the activities, expressed as minimum inhibitory concentrations (MICs), are listed in Table 3.” for “strain.”

hCA IX = target: T6, hCA IX (Homo sapiens, UniProt Q16790); test: stopped-flow CO2 hydration assay; format: biochemical
T6 construct: gene CA9; recombinant
Summary of the method: as §2

hCA I = target: T7, hCA I (Homo sapiens, UniProt P00915); test: stopped-flow CO2 hydration assay; format: biochemical
T7 construct: gene CA1; recombinant
T7 sequence (P00915 2-261): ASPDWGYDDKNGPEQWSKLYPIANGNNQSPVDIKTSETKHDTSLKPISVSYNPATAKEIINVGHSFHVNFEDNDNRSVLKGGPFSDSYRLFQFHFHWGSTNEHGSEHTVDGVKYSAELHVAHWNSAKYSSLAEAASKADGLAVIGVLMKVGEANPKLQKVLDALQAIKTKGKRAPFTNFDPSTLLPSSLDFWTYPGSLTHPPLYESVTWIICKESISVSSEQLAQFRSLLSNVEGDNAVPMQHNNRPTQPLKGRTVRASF
Summary of the method: as §2

hCA XII = target: T8, hCA XII (Homo sapiens, UniProt O43570); test: stopped-flow CO2 hydration assay; format: biochemical
T8 construct: gene CA12; recombinant
T8 sequence (O43570 25-354): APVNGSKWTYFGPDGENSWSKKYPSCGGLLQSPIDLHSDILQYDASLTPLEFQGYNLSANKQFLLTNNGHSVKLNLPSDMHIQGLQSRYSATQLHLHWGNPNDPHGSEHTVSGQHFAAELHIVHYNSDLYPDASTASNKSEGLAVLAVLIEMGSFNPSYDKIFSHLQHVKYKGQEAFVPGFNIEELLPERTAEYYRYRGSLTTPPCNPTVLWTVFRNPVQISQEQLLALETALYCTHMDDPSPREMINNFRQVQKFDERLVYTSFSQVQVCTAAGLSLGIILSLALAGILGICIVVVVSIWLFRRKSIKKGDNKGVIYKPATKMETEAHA
Summary of the method: as §2

hCA VII = target: T9, hCA VII (Homo sapiens, UniProt P43166); test: stopped-flow CO2 hydration assay; format: biochemical
T9 construct: gene CA7; recombinant
T9 sequence (P43166 whole entry): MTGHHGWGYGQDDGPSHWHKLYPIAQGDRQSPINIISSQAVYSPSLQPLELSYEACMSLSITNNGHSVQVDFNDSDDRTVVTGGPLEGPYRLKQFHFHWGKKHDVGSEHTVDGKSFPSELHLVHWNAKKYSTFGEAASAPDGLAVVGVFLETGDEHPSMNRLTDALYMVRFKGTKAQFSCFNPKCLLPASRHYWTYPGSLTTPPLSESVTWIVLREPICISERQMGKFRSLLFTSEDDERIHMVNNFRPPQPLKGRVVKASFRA
Summary of the method: as §2

| SMILES | MIC [1] [µM] | Ki (hCA II) [nM] | MIC [2] [µM] | MIC [3] [µM] | MIC [4] [µM] | Ki (hCA IX) [nM] | Ki (hCA I) [nM] | Ki (hCA XII) [nM] | Ki (hCA VII) [nM] | MIC [µM] / VRE 725 B ([4]; inhibitor) [µM] |
| --- | --- | --- | --- | --- | --- | --- | --- | --- | --- | --- |
| NS(=O)(=O)c1ccc(CCNc2nc(NCCCO)nc(Nc3ccc(/C=C/c4ccccc4)cc3)n2)cc1 [compound 30, (E)-4-[2-({4-[(3-Hydroxypropyl)amino]-6-[(4-styrylphenyl)amino]-1,3,5-triazin-2-yl}amino)ethyl]benzenesulfonamide] | > 469 | 5130 | > 469 | > 469 | > 469 | 12.1 | 5700 | 7.6 |  |  |
| NS(=O)(=O)c1ccc(CCNc2nc(NCc3ccc(S(N)(=O)=O)cc3)nc(Nc3ccc(/C=C/c4ccccc4O)cc3)n2)cc1 [compound 36, (E)-4-{2-[(4-{[4-(2-Hydroxystyryl)phenyl]amino}-6-[(4-sulfamoylbenzyl)amino]-1,3,5-triazin-2-yl)amino]ethyl}benzenesulfonamide] | > 380 | 82 | > 380 | > 380 | > 380 | 2720 | 448 | 8.3 |  |  |
| NS(=O)(=O)c1ccc(Nc2nc(NCCCO)nc(Nc3ccc(/C=C/c4cccc(O)c4)cc3)n2)cc1 [compound 4, (E)-4-({4-[(3-Hydroxypropyl)amino]-6-{[4-(3-hydroxystyryl)phenyl]amino}-1,3,5-triazin-2-yl}amino)benzenesulfonamide] |  | 3640 |  |  |  | 27.5 | 7520 | 65.8 |  |  |
| NS(=O)(=O)c1ccc(CCNc2nc(NCc3ccc(S(N)(=O)=O)cc3)nc(Nc3ccc(/C=C/c4cccc(O)c4)cc3)n2)cc1 [compound 40, (E)-4-{2-[(4-{[4-(3-Hydroxystyryl)phenyl]amino}-6-[(4-sulfamoylbenzyl)amino]-1,3,5-triazin-2-yl)amino]ethyl}benzenesulfonamide] | 190 (≈ 128 µg/mL) | 18.9 | 380 (≈ 256 µg/mL) | 190 (≈ 128 µg/mL) | 190 (≈ 128 µg/mL) | 20.3 | 48.8 | 60.5 |  |  |
| NS(=O)(=O)c1ccc(CCNc2nc(NCC(O)CO)nc(Nc3ccc(/C=C/c4ccccc4O)cc3)n2)cc1 (centres unmarked) [compound 34, (E)-4-{2-[(4-[(2,3-Dihydroxypropyl)amino]-6-{[4-(2-hydroxystyryl)phenyl]amino}-1,3,5-triazin-2-yl)amino]ethyl}benzenesulfonamide] | > 443 | 5630 | > 443 | > 443 | > 443 | 2710 | 1670 | 8.5 |  |  |
| NS(=O)(=O)c1ccc(CCNc2nc(Nc3ccc(O)cc3)nc(Nc3ccc(/C=C/c4ccccc4)cc3)n2)cc1 [compound 32, (E)-4-{2-[(4-[(4-Hydroxyphenyl)amino]-6-[(4-styrylphenyl)amino]-1,3,5-triazin-2-yl)amino]ethyl}benzenesulfonamide] | 13.8 (≈ 8 µg/mL) | 7490 | 27.6 (≈ 16 µg/mL) | 27.6 (≈ 16 µg/mL) | 55.2 (≈ 32 µg/mL) | 2470 | 90.6 | 5.9 |  |  |
| NS(=O)(=O)c1ccc(CNc2nc(NCCCO)nc(Nc3ccc(/C=C/c4cccc(O)c4)cc3)n2)cc1 [compound 17, 17] | > 467 | 46.8 | 467 (≈ 256 µg/mL) | > 467 | > 467 | 22.2 | 358 | 493 |  |  |
| NS(=O)(=O)c1ccc(CCNc2nc(NCCCO)nc(Nc3ccc(/C=C/c4cccc(O)c4)cc3)n2)cc1 [compound 37, 37] | > 455 | 73.5 | > 455 | > 455 | > 455 | 26.4 | 675 | 601 |  |  |
| NS(=O)(=O)c1ccc(CCNc2nc(NCC(O)CO)nc(Nc3ccc(/C=C/c4ccccc4)cc3)n2)cc1 (centres unmarked) [compound 31, (E)-4-{2-[(4-[(2,3-Dihydroxypropyl)amino]-6-[(4-styrylphenyl)amino]-1,3,5-triazin-2-yl)amino]ethyl}benzenesulfonamide] | > 455 | 335 | > 455 | > 455 | > 455 | 248 | 36.9 | 4.4 |  |  |
| NS(=O)(=O)c1ccc(CCNc2nc(Nc3ccc(O)cc3)nc(Nc3ccc(/C=C/c4ccccc4O)cc3)n2)cc1 [compound 35, 35] | > 429 | 5470 | > 429 | > 429 | > 429 | 238 | 3940 | 37.1 |  |  |
| CN[C@H](CC(C)C)C(=O)N[C@H]1C(=O)N[C@@H](CC(N)=O)C(=O)N[C@H]2C(=O)N[C@H]3C(=O)N[C@H](C(=O)N[C@H](C(=O)O)c4cc(O)cc(O)c4-c4cc3ccc4O)[C@H](O)c3ccc(c(Cl)c3)Oc3cc2cc(c3O[C@@H]2O[C@H](CO)[C@@H](O)[C@H](O)[C@H]2O[C@H]2C[C@](C)(N)[C@H](O)[C@H](C)O2)Oc2ccc(cc2Cl)[C@H]1O [vancomycin] |  |  | 353 (≈ 512 µg/mL) | 353 (≈ 512 µg/mL) | 706 (≈ 1020 µg/mL) |  |  |  |  |  |
| NS(=O)(=O)c1ccc(Nc2nc(Cl)nc(NCCCO)n2)cc1 [compound 1, 1] |  | 44.8 |  |  |  | 229 | 26.8 |  | 128 |  |
| NS(=O)(=O)c1ccc(CCNc2nc(Cl)nc(NCC(O)CO)n2)cc1 (centres unmarked) [compound 19, 19] | > 635 |  | > 635 | > 635 | > 635 |  |  |  | 40.7 |  |
| NS(=O)(=O)c1ccc(CCNc2nc(NCc3ccc(S(N)(=O)=O)cc3)nc(Nc3ccc(/C=C/c4ccccc4)cc3)n2)cc1 [compound 33] | 97.4 (≈ 64 µg/mL) | 57.9 | 389 (≈ 255 µg/mL) | 194 (≈ 127 µg/mL) | 194 (≈ 127 µg/mL) | 1970 | 48 | 6.2 |  |  |
| NS(=O)(=O)c1ccc(CNc2nc(Cl)nc(NCCCO)n2)cc1 [compound 5, 5] |  |  |  |  |  |  |  |  | 332 |  |
| NS(=O)(=O)c1ccc(CCNc2nc(Nc3ccc(O)cc3)nc(Nc3ccc(/C=C/c4cccc(O)c4)cc3)n2)cc1 [compound 39, 39] | > 429 | 154 | > 429 | > 429 | > 429 | 876 | 742 | 68.5 |  |  |
| NS(=O)(=O)c1ccc(CCNc2nc(NCC(O)CO)nc(Nc3ccc(/C=C/c4cccc(O)c4)cc3)n2)cc1 (centres unmarked) [compound 38, (E)-4-{2-[(4-[(2,3-Dihydroxypropyl)amino]-6-{[4-(3-hydroxystyryl)phenyl]amino}-1,3,5-triazin-2-yl)amino]ethyl}benzenesulfonamide] | > 443 | 4440 | > 443 | > 443 | > 443 | 17.3 | 6730 | 84.5 |  |  |
| NS(=O)(=O)c1ccc(CCNc2nc(NCC(O)CO)nc(Nc3ccc(/C=C/c4ccc(O)cc4)cc3)n2)cc1 (centres unmarked) [compound 42, (E)-4-{2-[(4-[(2,3-Dihydroxypropyl)amino]-6-{[4-(4-hydroxystyryl)phenyl]amino}-1,3,5-triazin-2-yl)amino]ethyl}benzenesulfonamide] | 55.4 (≈ 32 µg/mL) | 96.3 | 221 (≈ 128 µg/mL) | 110 (≈ 63.5 µg/mL) | 221 (≈ 128 µg/mL) | 258 | 43.5 | 9.7 |  |  |
| NS(=O)(=O)c1ccc(CCNc2nc(Cl)nc(NCCCO)n2)cc1 [compound 18, 18] | 330 (≈ 128 µg/mL) |  | 661 (≈ 256 µg/mL) | 330 (≈ 128 µg/mL) | 661 (≈ 256 µg/mL) |  |  |  | 75.7 |  |
| NS(=O)(=O)c1ccc(CNc2nc(Cl)nc(NCc3ccc(S(N)(=O)=O)cc3)n2)cc1 [7 ^a] | 16.5 (≈ 7.98 µg/mL) |  | 33 (≈ 16 µg/mL) | 66 (≈ 31.9 µg/mL) | 131 (≈ 63.4 µg/mL) |  |  |  |  |  |
| CC1(C)S[C@@H]2[C@H](NC(=O)[C@H](N)c3ccccc3)C(=O)N2[C@H]1C(=O)O [ampicillin] |  |  |  |  |  |  |  |  |  | 5.72 (≈ 2 µg/mL) |
